In US20170035894A1, “DRUG DELIVERY CONJUGATES FOR TREATING RESISTANT CANCER AND FOR USE IN COMBINATION THERAPY” (ENDOCYTE, INC., priority 2014, published 2017):
Like-named read-outs stand apart in the source and are kept apart here.

Assays:
KB-DR150 tumors = assay: Vinca resistant KB-DR150 tumor model; type: in vivo, immunodeficient (XID) nu/nu mice
KB cells = type: cell-based, human
Procedure: METHOD. Inhibition of Cellular DNA Synthesis. The compounds described herein were evaluated using an in vitro cytotoxicity assay that predicts the ability of the drug to inhibit the growth of folate receptor-positive cells, such as KB cells, RAW264.7 macrophages, and the like. It is to be understood that the choice of cell type can made on the basis of the susceptibility of those selected cells to the drug that forms the conjugate. The test compounds were comprised of folate linked to a respective chemotherapeutic drug, as prepared according to the processes described herein. The test cells were exposed to varying concentrations of folate-drug conjugate, and also in the absence or presence of at least a 100-fold excess of folic acid to assess activity as being specific to folate receptor mediation.
Conjugates of cytotoxic drugs described herein are active against KB cells. The activity is mediated by the folate receptor as indicated by competition experiments using co-administered folic acid. KB cells were exposed for up to 7 h at 37° C. to the indicated concentrations of folate-drug conjugate in the absence or presence of at least a 100-fold excess of folic acid. The cells were then rinsed once with fresh culture medium and incubated in fresh culture medium for 72 hours at 37° C. Cell viability was assessed using a ^3H-thymidine incorporation assay. For compounds described herein, dose-dependent cytotoxicity was generally measurable, and in most cases, the IC50 values (concentration of drug conjugate required to reduce ^3H-thymidine incorporation into newly synthesized DNA by 50%) are in the low nanomolar range.
METHOD. In vitro activity against various cancer cell lines. IC50 values were generated for various cell lines. Cells were heavily seeded in 24-well Falcon plates and allowed to form nearly confluent monolayers overnight. Thirty minutes prior to the addition of the test compound, spent medium was aspirated from all wells and replaced with fresh folate-deficient RPMI medium (FFRPMI). A subset of wells were designated to receive media containing 100 μM folic acid. The cells in the designated wells were used to determine the targeting specificity. Without being bound by theory it is believed herein that the cytotoxic activity produced by test compounds in the presence of excess folic acid, i.e. where there is competition for FR binding, corresponds to the portion of the total activity that is unrelated to FR-specific delivery. Following one rinse with 1 mL of fresh FFRPMI containing 10% heat-inactivated fetal calf serum, each well received 1 mL of medium containing increasing concentrations of test compound (4 wells per sample) in the presence or absence of 100 μM free folic acid as indicated. Treated cells were pulsed for 2 h at 37° C., rinsed 4 times with 0.5 mL of media, and then chased in 1 mL of fresh medium up to 70 h. Spent medium was aspirated from all wells and replaced with fresh medium containing 5 μCi/mL ^3H-thymidine. Following a further 2 h 37° C. incubation, cells were washed 3 times with 0.5 mL of PBS and then treated with 0.5 mL of ice-cold 5% trichloroacetic acid per well. After 15 min, the trichloroacetic acid was aspirated and the cell material solubilized by the addition of 0.5 mL of 0.25 N sodium hydroxide for 15 min. A 450 μL aliquot of each solubilized sample was transferred to a scintillation vial containing 3 mL of Ecolume scintillation cocktail and then counted in a liquid scintillation counter. Final results are expressed as the percentage of ^3H-thymidine incorporation relative to untreated controls.

[1] = Maximum tolerated dose (MTD); type: in vivo, female Sprague-Dawley rats
Procedure: Maximum tolerated dose (MTD). […] Test compounds were administered by i.v., BIW, 2 wks in female Sprague-Dawley rats. […] Histopathologic changes were not observed with doses of EC1456 at or below the MTD.

[2] = difference in IC50 between competed and non-competed group

CCCC(=O)OCN(C(=O)[C@@H](NC(=O)[C@H]1CCCCN1C)C(C)CC)[C@H](C[C@@H](OC(C)=O)c1nc(C(=O)N[C@@H](Cc2ccc(O)cc2)C[C@H](C)C(=O)NNC(=O)OCCSSC[C@@H](NC(=O)[C@H](CCC(=O)NC[C@H](O)[C@@H](O)[C@H](O)[C@H](O)CO)NC(=O)[C@@H](CCC(=O)O)NC(=O)[C@H](CCC(=O)NC[C@H](O)[C@@H](O)[C@H](O)[C@H](O)CO)NC(=O)[C@@H](CCC(=O)O)NC(=O)[C@H](CCC(=O)NC[C@H](O)[C@@H](O)[C@H](O)[C@H](O)CO)NC(=O)CC[C@@H](NC(=O)c2ccc(NCc3cnc4nc(N)[nH]c(=O)c4n3)cc2)C(=O)O)C(=O)O)cs1)C(C)C (stereo in doubt) [EC1456]
efficacy of co-administration of EC1456 and doxorubicin (KB-DR150 tumors; EC1456 2 μmol/kg TIW×2 + DOXIL 5 mg/kg BIW×2): enhanced technical effect over both monotherapies | efficacy of EC1456 alone compared to doxorubicin (DOXIL) (KB-DR150 tumors; EC1456 2 μmol/kg TIW×2 vs DOXIL 5 mg/kg BIW×2): improved efficacy over doxorubicin | IC50 (KB cells; FR expression +++, read-out: Activity (IC50)): 2.3 nM | IC50 (KB cells; IC50 when competed with excess folic acid, read-out: 50% competition (nM) (c)): 1420 nM | IC50 (KB cells; as determined by thymidine incorporation, read-out: In vitro IC50 (nM) (b)): 1.5 nM | In vitro specificity (fold) (d) (KB cells; [2]): 944 fold | specificity for the folate receptor as determined by folic acid competition (KB cells; [2]): ca. 1000 fold | Competable up to 100 nM (KB cells; folic acid competition): Yes | improvement in specificity compared to comparator compound EC0531 (KB cells; folic acid competition): 4 fold | Histopathologic changes ([1]; doses at or below the MTD): not observed | MTD at 2 wks ([1]; female, Sprague-Dawley, rat, in vivo, iv, BIW, 2 wks): ≥ 0.51 µmol/kg | improvement of MTD over EC0531 ([1]; i.v., BIW, 2 wks): 65%
